Values joined by “and” are separate entries in the source; they are usually repeats but may differ in a detail not shown here. Equal entries are not always repeated.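 Following 48 hours of exposure in 96-well plates, responses at five concentrations were used to interpolate endpoints linearly. GI50 is the concentration that inhibits growth by half. TGI marks complete inhibition of growth.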
Columns and labels:
Assay in all cases: NCI-60 cell line screen, 48 h
[1] = test system: A498 renal
[2] = test system: ACHN renal
[3] = test system: HCT-116 colon
[4] = test system: HCT-15 colon
[5] = test system: MDA-MB-231 breast
[6] = test system: NCI-H460 lung
[7] = test system: NCI/ADR-RES ovarian
[8] = test system: OVCAR-4 ovarian
[9] = test system: SK-MEL-5 melanoma
[10] = test system: TK-10 renal

Compound | GI50 [1] | TGI [1] [µM] | GI50 [2] [µM] | TGI [2] [µM] | GI50 [3] | TGI [3] [µM] | GI50 [4] | TGI [4] [µM] | GI50 [5] | TGI [5] | GI50 [6] | TGI [6] [µM] | GI50 [7] | TGI [7] [µM] | GI50 [8] | TGI [8] [µM] | GI50 [9] | TGI [9] | GI50 [10] [µM] | TGI [10] [µM]
N#C/C(=C\c1ccc([N+](=O)[O-])cc1)n1nnc2cc(F)c(F)cc21 | 1.9 µM | 3.71 | 1.74 | 3.11 | 1.54 µM | 3.01 | 1.93 µM | 5.44 | 1.97 µM | 4.84 µM | 2.3 µM | 5.84 | 2.96 µM | 11.6 | 1.46 µM | 2.86 | 1.89 µM | 3.69 µM | 1.89 | 3.33
COc1cc2cc(Oc3ccc(NC(=O)Nc4ccc(F)c(C(F)(F)F)c4)cc3)c(C)nc2cc1OCCN1CCOCC1 | 2.8 µM | 10.2 | 2.3 | 11.4 | 1.11 µM | 11.2 | 1.73 µM | 4.19 | 2.83 µM | 9.02 µM | 1.96 µM | 5.34 | 2.56 µM | 12.1 | 0.706 µM | 5.23 | 1.14 µM | 2.36 µM | 4.94 | 25.1
COC(=O)Nc1nc2ccc(C(=O)C3CC3)cc2[nH]1 | 0.421 µM | – | 0.79 | > 100 | 0.438 µM | – | 0.385 µM | > 100 | 1.28 µM | > 46.1 µM | 0.363 µM | 20.7 | 0.329 µM | 9.82 | 0.551 µM | > 100 | 0.385 µM | 6.23 µM | 1.38 | 47.2
O=C(NCCNc1nccc(-c2c(-c3ccc(F)cc3)nc3sccn23)n1)Nc1cccc(C(F)(F)F)c1 | 10.7 µM | 23.8 | 4.14 | 36.7 | 5.47 µM | 18.9 | 4.22 µM | 47.9 | 3.28 µM | 10.1 µM | 4.51 µM | 17.5 | 4.38 µM | 64.2 | 4.74 µM | 43 | 1.58 µM | 3.43 µM | 10.5 | 36.2
COC(=O)CC12CC(NC(=O)c3csc([C@@H](C[C@H](C(C)C)N(C)C(=O)[C@@H](NC(=O)[C@H]4CCCCN4C)C(C)C)OC(C)=O)n3)(C1)C2 | 0.00384 µM and 0.00545 µM | 0.0224 | 0.026 | > 33.3 | 0.00337 µM and 0.00778 µM | > 33.3 | 0.0183 µM and 0.0254 µM | > 33.3 | 0.00661 µM and 0.0152 µM | 0.0958 µM and 0.515 µM | 0.00322 µM and 0.0116 µM | > 33.3 | 0.0659 µM and 0.122 µM | – | 0.455 µM and 0.326 µM | > 33.3 | 0.00191 µM and 0.00412 µM | 0.0487 µM and 0.074 µM | 0.415 | > 33.3
O=C(O)c1cc(C(=O)C(=O)c2cc(C(=O)O)c(O)c3ccccc23)c2ccccc2c1O | – | > 100 | – | > 100 | – | > 100 | – | > 100 | – | > 100 µM | – | > 100 | – | > 100 | – | > 100 | – | > 100 µM | – | > 100
CSc1nc(SC)c2c(C)cn(Cc3ccccc3)c2n1 | – | > 100 | – | > 100 | – | > 100 | – | > 100 | – | > 100 µM | – | > 100 | – | > 100 | – | > 100 | – | > 100 µM | – | > 100

— PubChem BioAssay (NCI)
